Data on 13 compounds can be found in US20210038607A1, “OXADIAZOLYLTHIOPHENE DERIVATIVES USEFUL AS HISTONE DEACETYLASE INHIBITORS” (Karus Therapeutics Limited, priority 2018, published 2021).

For experiment [1], the target named is T1, Human HDAC9 (Homo sapiens, UniProt Q9UKV0).
T1 construct: amino acids 604-1066 with C-terminal His tag; His (C); host or cells: baculovirus expression system
Nature of the experiment: HDAC9 biochemical assay, class IIa-specific substrate. The conditions noted are these: read-out: HDAC Isoform IC50 (nM) 9. The method in brief: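 HDAC9 residues 604-1066 (C-terminal His tag, baculovirus-expressed) at 0.06 ng/ul with 50 μM class IIa substrate Boc-Lys(trifluoroacetyl)-AMC in Tris-HCl pH 8.0 buffer with BSA and 1% DMSO. 30 min at room temperature, then developer added; fluorescence read at 360/460 nm Ex/Em.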

For experiment [2], the target named is T2, Human HDAC4 (Homo sapiens, UniProt P56524).
T2 construct: amino acids 627-1085 with N-terminal GST tag; GST (N); host or cells: baculovirus expression system
T2 sequence (P56524 627-1084 limits assumed): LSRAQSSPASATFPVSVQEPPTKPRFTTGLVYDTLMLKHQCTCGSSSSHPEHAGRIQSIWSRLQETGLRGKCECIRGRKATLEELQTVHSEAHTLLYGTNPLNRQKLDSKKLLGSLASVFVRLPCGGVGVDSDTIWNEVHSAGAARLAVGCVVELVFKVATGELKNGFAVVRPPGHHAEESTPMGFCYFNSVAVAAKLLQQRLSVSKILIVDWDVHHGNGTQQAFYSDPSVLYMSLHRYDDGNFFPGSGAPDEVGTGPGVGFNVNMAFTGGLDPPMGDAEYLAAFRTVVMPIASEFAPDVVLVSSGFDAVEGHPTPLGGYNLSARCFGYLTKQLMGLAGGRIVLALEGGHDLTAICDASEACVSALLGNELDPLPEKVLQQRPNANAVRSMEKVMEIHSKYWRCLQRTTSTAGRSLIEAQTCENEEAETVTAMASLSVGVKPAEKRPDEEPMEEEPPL
Nature of the experiment: HDAC4 biochemical assay, class IIa-specific substrate. To be noted: read-out: HDAC Isoform IC50 (nM) 4. The method in brief:
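GST-tagged human HDAC4 (aa 627-1085, baculovirus) at 0.004 ng/ul was incubated 30 min at room temperature with 50 μM class IIa-specific substrate BOC-Lys(trifluoroacetyl)-AMC in Tris-HCl pH 8.0 buffer with BSA, 1% DMSO. Developer then released AMC, read at 360/460 nm.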

In experiment [3] the target is T3, Complex of human HDAC3 and human NCOR2 (Homo sapiens, UniProt O15379).
T3 construct: full length with C-terminal His tag, MW=49.7 kDa; His (C); host or cells: baculovirus expression system (co-expressed)
T3 sequence (O15379 whole entry): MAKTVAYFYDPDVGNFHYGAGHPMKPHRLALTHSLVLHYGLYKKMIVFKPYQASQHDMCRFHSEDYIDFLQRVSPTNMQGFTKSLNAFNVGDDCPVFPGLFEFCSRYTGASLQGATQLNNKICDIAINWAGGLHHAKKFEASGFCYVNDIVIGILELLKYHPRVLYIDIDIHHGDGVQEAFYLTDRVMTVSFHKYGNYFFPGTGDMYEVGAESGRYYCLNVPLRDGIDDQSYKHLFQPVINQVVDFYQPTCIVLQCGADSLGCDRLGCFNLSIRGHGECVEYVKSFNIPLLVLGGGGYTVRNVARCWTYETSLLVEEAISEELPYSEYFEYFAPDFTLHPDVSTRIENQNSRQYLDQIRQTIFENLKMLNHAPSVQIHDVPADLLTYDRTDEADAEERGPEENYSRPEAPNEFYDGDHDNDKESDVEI
T3 sequence (Q9Y618 395-489 partner limits assumed): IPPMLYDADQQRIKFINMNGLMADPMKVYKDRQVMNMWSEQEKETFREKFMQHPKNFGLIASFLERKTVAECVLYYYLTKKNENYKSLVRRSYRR
Nature of the experiment: HDAC3 biochemical assay, AMC-labeled peptide substrate. The conditions noted are these: read-out: HDAC Isoform IC50 (nM) 3. Summed up:
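Baculovirus-coexpressed His-tagged full-length HDAC3 with GST-NCOR2 (aa 395-489), 0.1 ng/ul, deacetylates 50 μM RHKK(Ac)AMC in Tris-HCl pH8.0 with BSA and 1% DMSO, 1 h at 30° C. Developer then cleaves deacetylated substrate; fluorescence read at 360/460 Ex/Em.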

For experiment [4], the target named is T4, Recombinant human HDAC6 (Homo sapiens, UniProt Q9UBN7).
T4 construct: full length, MW=159 kDa; GST (N); host or cells: Sf9 insect cells (baculovirus)
T4 sequence (Q9UBN7 1-1215): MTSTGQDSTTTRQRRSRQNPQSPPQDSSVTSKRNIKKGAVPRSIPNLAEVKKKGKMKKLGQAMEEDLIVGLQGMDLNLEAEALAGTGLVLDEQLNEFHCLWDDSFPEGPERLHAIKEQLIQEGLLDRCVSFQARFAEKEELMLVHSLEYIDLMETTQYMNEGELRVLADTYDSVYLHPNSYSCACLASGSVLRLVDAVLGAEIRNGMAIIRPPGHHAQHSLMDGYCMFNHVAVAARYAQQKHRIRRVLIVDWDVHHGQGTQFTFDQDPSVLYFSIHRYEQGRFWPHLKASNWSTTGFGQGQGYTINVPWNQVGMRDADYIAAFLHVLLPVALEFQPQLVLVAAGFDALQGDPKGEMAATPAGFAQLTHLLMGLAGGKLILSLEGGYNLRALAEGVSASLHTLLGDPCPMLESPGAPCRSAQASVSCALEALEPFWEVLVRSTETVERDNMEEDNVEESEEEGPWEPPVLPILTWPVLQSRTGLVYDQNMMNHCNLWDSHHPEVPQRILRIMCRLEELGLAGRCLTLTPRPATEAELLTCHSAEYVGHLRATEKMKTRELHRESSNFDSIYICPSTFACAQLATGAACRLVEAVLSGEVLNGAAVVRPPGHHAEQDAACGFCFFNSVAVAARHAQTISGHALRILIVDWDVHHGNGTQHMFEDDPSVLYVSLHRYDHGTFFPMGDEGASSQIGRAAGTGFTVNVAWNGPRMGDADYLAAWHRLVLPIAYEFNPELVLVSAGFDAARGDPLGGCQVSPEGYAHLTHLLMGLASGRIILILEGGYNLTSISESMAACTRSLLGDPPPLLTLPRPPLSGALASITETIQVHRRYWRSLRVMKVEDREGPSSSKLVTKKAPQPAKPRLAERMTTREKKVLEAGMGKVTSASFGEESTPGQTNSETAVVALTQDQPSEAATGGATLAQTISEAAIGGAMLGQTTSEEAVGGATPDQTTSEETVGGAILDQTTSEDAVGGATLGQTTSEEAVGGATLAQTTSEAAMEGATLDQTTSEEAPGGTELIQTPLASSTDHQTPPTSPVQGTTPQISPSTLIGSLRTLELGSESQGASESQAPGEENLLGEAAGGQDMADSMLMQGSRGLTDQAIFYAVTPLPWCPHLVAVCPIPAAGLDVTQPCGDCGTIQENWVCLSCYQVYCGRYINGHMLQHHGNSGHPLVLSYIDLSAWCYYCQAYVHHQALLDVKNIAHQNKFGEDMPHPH
Nature of the experiment: HDAC6 biochemical assay, AMC-labeled peptide substrate. The conditions noted are these: HDAC6; read-out: HDAC Isoform IC50 (nM) 6. The method in brief: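 Two-step fluorogenic read-out: enzyme deacetylates 50 μM RHKK(Ac)AMC for 1 h at 30° C in pH 8.0 Tris buffer with BSA and 1% DMSO, then developer cleavage gives signal at Ex 360/Em 460. Enzyme: 0.3 ng/ul recombinant full-length human HDAC6, GST-tagged, Sf9-expressed.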

T1 sequence (Q9UKV0 604-1066 isoform Q9UKV0-5): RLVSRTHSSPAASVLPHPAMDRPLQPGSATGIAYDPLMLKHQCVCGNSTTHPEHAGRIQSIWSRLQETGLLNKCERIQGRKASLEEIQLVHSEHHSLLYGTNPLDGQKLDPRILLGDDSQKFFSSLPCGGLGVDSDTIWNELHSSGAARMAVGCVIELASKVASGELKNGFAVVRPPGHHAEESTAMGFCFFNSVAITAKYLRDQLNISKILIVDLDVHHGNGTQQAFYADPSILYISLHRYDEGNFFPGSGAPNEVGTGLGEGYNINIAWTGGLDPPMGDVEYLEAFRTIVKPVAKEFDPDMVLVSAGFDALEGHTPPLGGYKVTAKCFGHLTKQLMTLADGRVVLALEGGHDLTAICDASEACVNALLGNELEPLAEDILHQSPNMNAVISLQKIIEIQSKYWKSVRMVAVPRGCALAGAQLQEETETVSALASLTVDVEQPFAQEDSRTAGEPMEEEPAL

Usually IC50 stands for the concentration that inhibits the measured activity by half. `O=C(c1cnnc(N(Cc2ccc(-c3noc(C(F)(F)F)n3)s2)c2cnccn2)c1)N1CC(F)(F)C1` [Example FT, 5-(3,3-Difluoroazetidine-1-carbonyl)-N-(pyrazin-2-yl)-N-({5-[5-(trifluoromethyl)-1,2,4-oxadiazol-3-yl]thiophen-2-yl}methyl)pyridazin-3-amine]: the half-inhibitory concentration (IC50) is ≤ 10000 nM in experiment [1], ≤ 10000 nM in experiment [2], > 10000 nM in experiment [3] and ≤ 500 nM in experiment [4].

On to `O=C(c1cnnc(N(Cc2ccc(-c3noc(C(F)(F)F)n3)s2)c2cnccn2)c1)N1CC[S+]([O-])CC1` [Example FU, 4-{6-[(Pyrazin-2-yl)({5-[5-(trifluoromethyl)-1,2,4-oxadiazol-3-yl]thiophen-2-yl}methyl)amino]pyridazine-4-carbonyl}-1lambda4-thiomorpholin-1-one], for which the half-maximal inhibitory concentration (IC50) in experiment [1] is ≤ 10000 nM; in experiment [2], ≤ 10000 nM; in experiment [3], > 10000 nM; in experiment [4] it was ≤ 500 nM.

With `O=C(c1cnnc(N(Cc2ccc(-c3noc(C(F)(F)F)n3)s2)c2cnccn2)c1)N1C[C@@H]2C[C@H]1CO2` [Example FV, 5-[(1S,4S)-2-Oxa-5-azabicyclo[2.2.1]heptane-5-carbonyl]-N-(pyrazin-2-yl)-N-({5-[5-(trifluoromethyl)-1,2,4-oxadiazol-3-yl]thiophen-2-yl}methyl)pyridazin-3-amine], the half-maximal inhibitory concentration (IC50) in experiment [1] is ≤ 10000 nM; in experiment [2], ≤ 10000 nM; in experiment [3] it was > 10000 nM; in experiment [4] it was ≤ 500 nM.

Consider `O=C(c1cnnc(N(Cc2ccc(-c3noc(C(F)(F)F)n3)s2)c2cnccn2)c1)N1C[C@H]2C[C@@H]1CO2` [Example FW, 5-[(1R,4R)-2-Oxa-5-azabicyclo[2.2.1]heptane-5-carbonyl]-N-(pyrazin-2-yl)-N-({5-[5-(trifluoromethyl)-1,2,4-oxadiazol-3-yl]thiophen-2-yl}methyl)pyridazin-3-amine], for which the IC50 in experiment [1] is ≤ 10000 nM; in experiment [2], ≤ 10000 nM; in experiment [3], ≤ 10000 nM; in experiment [4], ≤ 500 nM.

Take `CN(C)C1CN(C(=O)c2cnnc(N(Cc3ccc(-c4noc(C(F)(F)F)n4)s3)c3cnccn3)c2)C1` [Example FX, 5-[3-(Dimethylamino)azetidine-1-carbonyl]-N-(pyrazin-2-yl)-N-({5-[5-(trifluoromethyl)-1,2,4-oxadiazol-3-yl]thiophen-2-yl}methyl)pyridazin-3-amine]: the half-inhibitory concentration (IC50) in experiment [1] is ≤ 10000 nM; in experiment [2], ≤ 10000 nM; in experiment [3], > 10000 nM; in experiment [4], ≤ 500 nM.

As for `O=C(c1cnnc(N(Cc2ccc(-c3noc(C(F)(F)F)n3)s2)c2cnccn2)c1)N1CCC(F)(F)CC1` [Example FY, 5-(4,4-Difluoropiperidine-1-carbonyl)-N-(pyrazin-2-yl)-N-({5-[5-(trifluoromethyl)-1,2,4-oxadiazol-3-yl]thiophen-2-yl}methyl)pyridazin-3-amine], the half-maximal inhibitory concentration (IC50) is ≤ 10000 nM in experiment [1], ≤ 10000 nM in experiment [2], > 10000 nM in experiment [3] and ≤ 500 nM in experiment [4].

For `O=C(c1cnnc(N(Cc2ccc(-c3noc(C(F)(F)F)n3)s2)c2cnccn2)c1)N1CC2(COC2)C1` [Example FZ, 5-{2-Oxa-6-azaspiro[3.3]heptane-6-carbonyl}-N-(pyrazin-2-yl)-N-({5-[5-(trifluoromethyl)-1,2,4-oxadiazol-3-yl]thiophen-2-yl}methyl)pyridazin-3-amine], the IC50 in experiment [1] was ≤ 10000 nM; in experiment [2] it was ≤ 10000 nM; in experiment [3], > 10000 nM; in experiment [4] it was ≤ 500 nM.

On to `O=C(c1cnnc(N(Cc2ccc(-c3noc(C(F)(F)F)n3)s2)c2cnccn2)c1)N1CC2CCC(C1)O2` [Example GA, 5-{8-Oxa-3-azabicyclo[3.2.1]octane-3-carbonyl}-N-(pyrazin-2-yl)-N-({5-[5-(trifluoromethyl)-1,2,4-oxadiazol-3-yl]thiophen-2-yl}methyl)pyridazin-3-amine], for which the IC50 was ≤ 10000 nM in experiment [1], ≤ 10000 nM in experiment [2], > 10000 nM in experiment [3] and ≤ 500 nM in experiment [4].

As for `O=C(c1cnnc(N(Cc2ccc(-c3noc(C(F)(F)F)n3)s2)c2cnccn2)c1)N1C2CCC1COC2` [Example GB, 5-{3-Oxa-8-azabicyclo[3.2.1]octane-8-carbonyl}-N-(pyrazin-2-yl)-N-({5-[5-(trifluoromethyl)-1,2,4-oxadiazol-3-yl]thiophen-2-yl}methyl)pyridazin-3-amine], the IC50 in experiment [1] is ≤ 10000 nM; in experiment [2], ≤ 10000 nM; in experiment [3], > 10000 nM; in experiment [4], ≤ 500 nM.

As to `CC(C)OC1CN(C(=O)c2cnnc(N(Cc3ccc(-c4noc(C(F)(F)F)n4)s3)c3cnccn3)c2)C1` [Example GC, 5-[3-(Propan-2-yloxy)azetidine-1-carbonyl]-N-(pyrazin-2-yl)-N-({5-[5-(trifluoromethyl)-1,2,4-oxadiazol-3-yl]thiophen-2-yl}methyl)pyridazin-3-amine], the IC50 was ≤ 10000 nM in experiment [1], ≤ 1000 nM in experiment [2], > 10000 nM in experiment [3] and ≤ 500 nM in experiment [4].

On to `O=C(c1cnnc(N(Cc2ccc(-c3noc(C(F)(F)F)n3)s2)c2cnccn2)c1)N1CC(O)(C(F)(F)F)C1` [Example GD, 1-{6-[(Pyrazin-2-yl)({5-[5-(trifluoromethyl)-1,2,4-oxadiazol-3-yl]thiophen-2-yl}methyl)amino]pyridazine-4-carbonyl}-3-(trifluoromethyl)azetidin-3-ol], for which the IC50 in experiment [1] was ≤ 10000 nM; in experiment [2], ≤ 10000 nM; in experiment [3], ≤ 10000 nM; in experiment [4] it was ≤ 500 nM.

As to `CN(C(=O)c1cnnc(N(Cc2ccc(-c3noc(C(F)(F)F)n3)s2)c2cnccn2)c1)S(C)(=O)=O` [Example GE, N-Methanesulfonyl-N-methyl-6-[(pyrazin-2-yl)({5-[5-(trifluoromethyl)-1,2,4-oxadiazol-3-yl]thiophen-2-yl}methyl)amino]pyridazine-4-carboxamide], the IC50 in experiment [1] is ≤ 10000 nM; in experiment [2] it was ≤ 10000 nM; in experiment [3], > 10000 nM; in experiment [4], ≤ 500 nM.

On to `O=C(c1cnnc(N(Cc2ccc(-c3noc(C(F)(F)F)n3)s2)c2cnccn2)c1)N1CCC12COC2` [Example GF, 5-{6-Oxa-1-azaspiro[3.3]heptane-1-carbonyl}-N-(pyrazin-2-yl)-N-({5-[5-(trifluoromethyl)-1,2,4-oxadiazol-3-yl]thiophen-2-yl}methyl)pyridazin-3-amine], for which the half-maximal inhibitory concentration (IC50) was ≤ 10000 nM in experiment [1], ≤ 1000 nM in experiment [2], > 10000 nM in experiment [3] and ≤ 500 nM in experiment [4].
